Reference: patent US8481738B2, “Gonadotropin-releasing hormone receptor antagonists and methods relating thereto” (Neurocrine Biosciences, Inc., priority 2007, dated 2013)

target: T1, human GnRH receptor (Homo sapiens, UniProt P30968); assay: Peptide competition radioligand binding displacement assay, human GnRH receptor membranes; settings: one or more of the peptide competition human receptor binding assays
T1 construct: expressed in transfected cells; host or cells: RBL cells, stably transfected (in general)
T1 sequence (P30968 1-328): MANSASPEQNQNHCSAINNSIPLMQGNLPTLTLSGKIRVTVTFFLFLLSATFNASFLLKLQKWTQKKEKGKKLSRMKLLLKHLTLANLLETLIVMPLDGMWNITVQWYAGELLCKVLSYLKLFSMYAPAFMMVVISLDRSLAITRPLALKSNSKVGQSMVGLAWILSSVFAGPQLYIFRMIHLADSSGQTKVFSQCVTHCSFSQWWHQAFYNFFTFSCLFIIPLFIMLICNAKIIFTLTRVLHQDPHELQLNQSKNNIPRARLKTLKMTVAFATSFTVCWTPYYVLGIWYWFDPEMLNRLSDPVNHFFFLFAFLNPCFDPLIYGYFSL
Description: cDNA's of human, rhesus macaque, rabbit, dog and rat GnRH receptors are cloned into pcDNA3.1 (+) (Invitrogen). Full length sequences of all receptors are confirmed by DNA sequencing. HEK 293, CHO, COS-7, or rat basophilic leukemia (RBL) cells are stably transfected with human, rat, or macaque GnRH receptors and high expressing single cell clones (Bmax≧0.4 pMol/mg membrane protein) are isolated and maintained in Dulbecco's Modified Eagles Medium (DMEM) with following supplements: 10 mM HEPES; 2 mM L-glutamine; 1 mM Sodium Pyruvate; 50 U/mL penicillin, 50 μg/mL streptomycin; 10% Heat-inactivated Fetal Bovine Serum and 200 μg/mL Geneticin (G-418-Sulfate). Non-essential amino acids (0.1 mM) (Irvine Scientific; Santa Ana, Calif.) are included in the RBL cell media.
In general, initial peptide radioligand binding assays are carried out using membranes from stably transfected RBL cells. RBL stable clones are found to more consistently express high levels of GnRH receptor and are therefore used for subsequent binding studies as well as Ca^++ flux and inositol phosphate accumulation assays. Transiently transfected COS-7 cells are used for preparation of membranes containing GnRH receptors from multiple species (as well as those of mutant receptors for other studies) because of the convenience for rapidly analyzing multiple receptors.
HEK293 cells stably transfected with the human GnRH receptor are grown for two days after achieving confluence then are harvested by striking tissue culture flasks against a firm surface. Cells are collected by centrifugation at 1000 g for 5 minutes. Cell pellets are resuspended in 5% sucrose and homogenized using a polytron homogenizer for two 15 second homogenization steps. Cell homogenates are then centrifuged for 5 minutes at 3000 g to remove nuclei and the supernatant subsequently centrifuged for 30 minutes at 44,000 g to collect the membrane fraction. The membrane pellet is resuspended in GnRH binding buffer (10 mM HEPES, pH 7.5, 150 mM NaCl and 0.1% BSA) and aliquots immediately snap-frozen in liquid nitrogen and stored at −80° C. Protein content of the membrane suspension is determined using the Bio-Rad protein assay kit (Bio-Rad).
RBL cells stably transfected with the human GnRH receptor are grown to 80% confluency prior to harvesting. The cells are incubated at 37° C. for 10 min in 0.5 mM EDTA/PBS (Ca^++, Mg^++ free), and are dislodged from the plate by gentle rapping of the flasks. Cells are collected and pelleted by centrifugation at 1000 g for 5 minutes. Cell pellets are resuspended in buffer (DPBS supplemented with 10 mM MgCl2, 2 mM EGTA, pH=7.4), and cell lysis is performed using a pressure cell and applying N2 at a pressure of 900 psi for 30 min at 4° C. Unbroken cells and larger debris were removed by centrifugation at 1200 g for 10 min at 4° C. The cell membrane supernatant is then centrifuged at 45,000 g and the resulting membrane pellet is resuspended in assay buffer and homogenized on ice using a tissue homogenizer. Protein concentrations are determined using the Coomassie Plus Protein Reagent kit. Membranes are aliquoted and stored at −80° C. until ready for use.
COS-7 cells transiently transfected with GnRH receptors from different species (human, macaque, dog, rabbit, rat) or mutant GnRH receptors are prepared by bulk electroporation. COS-7 cells are obtained from American Type Cell Culture (Manassas, Va.) and are maintained in Dulbeccos's modified Eagle's medium (DMEM) (MediaTech Inc., Herndon, Va.) containing 10% fetal bovine serum, 10 mM HEPES, 2 mM L-glutamine, 1 mM sodium pyruvate, 50 U/mL penicillin, 50 μg/mL streptomycin. COS-7 cells are seeded in 500 cm^2 tissue culture plates and grown to confluency prior to cell transfection. […]

Compound | Ki
COC(=O)CCCOc1ccccc1N(C)C(=O)c1ccc(Cl)c(-c2cnc(C#N)cc2C)c1 [3-8] | ≤ 100 nM
COC(=O)CCCOc1cccc(C)c1N(C)C(=O)c1ccc(Cl)c(-c2cnc(C#N)cc2C)c1 [3-9] | ≤ 100 nM
COC(=O)CCCOc1ccccc1N(C)C(=O)c1ccc(Cl)c(-c2cnc(C(F)(F)F)cc2C#N)c1 [3-10] | ≤ 100 nM
COC(=O)CCCOc1cccc(C)c1N(C)C(=O)c1ccc(Cl)c(-c2cnc(C(F)(F)F)cc2C#N)c1 [3-11] | ≤ 100 nM
COC(=O)CCCOc1c(F)cccc1N(C)C(=O)c1ccc(Cl)c(-c2cnc(C(F)(F)F)cc2C#N)c1 [3-12] | ≤ 100 nM
Cc1cc(Cl)ncc1-c1cc(C(=O)N(C)c2ccccc2OCC(=O)O)ccc1Cl [4-1, (2-{[4-Chloro-3-(6-chloro-4-methyl-pyridin-3-yl)-benzoyl]-methyl-amino}-phenoxy)-acetic acid] | ≤ 100 nM
Cc1cc(Cl)ncc1-c1cc(C(=O)N(C)c2ccccc2OCCCC(=O)O)ccc1Cl [4-2] | ≤ 100 nM
Cc1cc(Cl)ncc1-c1cc(C(=O)N(C)c2c(C)cccc2OCCCC(=O)O)ccc1Cl [4-3] | ≤ 100 nM
Cc1cc(Cl)ncc1-c1cc(C(=O)N(C)c2cccc(F)c2OCCCC(=O)O)ccc1Cl [4-4] | ≤ 100 nM
Cc1cc(Cl)ncc1-c1cc(C(=O)N(C)c2ccccc2OCCCCC(=O)O)ccc1Cl [4-5] | ≤ 100 nM
Cc1cc(C(F)(F)F)ncc1-c1cc(C(=O)N(C)c2ccccc2OCCCC(=O)O)ccc1Cl [4-6] | ≤ 100 nM
Cc1cc(C(F)(F)F)ncc1-c1cc(C(=O)N(C)c2cccc(F)c2OCCCC(=O)O)ccc1Cl [4-7] | ≤ 100 nM
Cc1cc(C#N)ncc1-c1cc(C(=O)N(C)c2c(C)cccc2OCCCC(=O)O)ccc1Cl [4-8] | ≤ 100 nM
Cc1cc(C#N)ncc1-c1cc(C(=O)N(C)c2cccc(F)c2OCCCC(=O)O)ccc1Cl [4-9] | ≤ 100 nM
CN(C(=O)c1ccc(Cl)c(-c2cnc(C(F)(F)F)cc2C#N)c1)c1ccccc1OCCCC(=O)O [4-10] | ≤ 100 nM
Cc1cccc(OCCCC(=O)O)c1N(C)C(=O)c1ccc(Cl)c(-c2cnc(C(F)(F)F)cc2C#N)c1 [4-11] | ≤ 100 nM
CN(C(=O)c1ccc(Cl)c(-c2cnc(C(F)(F)F)cc2C#N)c1)c1cccc(F)c1OCCCC(=O)O [4-12] | ≤ 100 nM
Cc1cc(C#N)ncc1-c1cc(C(=O)N(C)c2ccccc2OCCCC(=O)O)ccc1Cl [5-1, 4-(2-{[4-Chloro-3-(6-cyano-4-methyl-pyridin-3-yl)-benzoyl]-methyl-amino}-phenoxy)-butyric acid] | ≤ 100 nM
Cc1cccc(OCCCC(=O)O)c1N(C)C(=O)c1ccc(Cl)c(-c2ncc(C(F)(F)F)cc2Cl)c1 [5-3] | ≤ 100 nM
Cc1cccc(OCCCC(=O)O)c1N(C)C(=O)c1ccc(Cl)c(-c2nc3ccccc3cc2C#N)c1 [5-4] | ≤ 100 nM
CN(C(=O)c1ccc(Cl)c(-c2ccc(Cl)cc2C#N)c1)c1ccccc1OCCCC(=O)O [5-6] | ≤ 100 nM
Cc1cc(Cl)ncc1-c1cc(C(=O)N(C)c2ccccc2OCC(N)=O)ccc1Cl [6-1, N-(2-Carbamoylmethoxy-phenyl)-4-chloro-3-(6-chloro-4-methyl-pyridin-3-yl)-N-methyl-benzamide] | ≤ 100 nM
CN(C)CCOc1ccccc1N(C)C(=O)c1ccc(Cl)c(-c2cnc(Cl)cc2Cl)c1 [7-1, 4-Chloro-3-(4,6-dichloro-pyridin-3-yl)-N-[2-(2-dimethylamino-ethoxy)-phenyl]-N-methyl-benzamide] | ≤ 100 nM

Compound | Ki
Cc1cccc(O)c1N(C)C(=O)c1ccc(Cl)c(-c2cnc(C(F)(F)F)cc2C#N)c1 [8-7] | ≤ 100 nM
Cc1cc(C#N)ncc1-c1cc(C(=O)N(C)c2c(C)cccc2OCCCO)ccc1Cl [9-5] | ≤ 100 nM
Cc1cccc(OCCCO)c1N(C)C(=O)c1ccc(Cl)c(-c2ccc(C(F)(F)F)cc2C#N)c1 [10-1, 4-Chloro-3-(2-cyano-4-trifluoromethyl-phenyl)-N-[2-(3-hydroxy-propoxy)-6-methyl-phenyl]-N-methyl-benzamide] | ≤ 100 nM
CN(C(=O)c1ccc(Cl)c(-c2nc3ccccc3cc2C#N)c1)c1ccccc1OCCCO [10-2, 4-chloro-3-(3-cyano-quinolin-2-yl)-N-[2-(3-hydroxy-propoxy)-phenyl]-N-methyl-benzamide] | ≤ 100 nM
Cc1cc(C#N)ncc1-c1cc(C(=O)N(C)c2ccccc2OCCC(=O)O)ccc1Cl [11-1, 3-(2-{[4-Chloro-3-(6-cyano-4-methyl-pyridin-3-yl)-benzoyl]-methyl-amino}-phenoxy)-propionic acid] | ≤ 100 nM
Cc1cc(Cl)ncc1-c1cc(C(=O)N(C)c2ccccc2OCCC(=O)O)ccc1Cl [11-2] | ≤ 100 nM
Cc1cc(C(F)(F)F)ncc1-c1cc(C(=O)N(C)c2ccccc2OCCC(=O)O)ccc1Cl [11-3] | ≤ 100 nM
CN(C(=O)c1ccc(Cl)c(-c2cnc(C(F)(F)F)cc2C#N)c1)c1ccccc1OCCC(=O)O [11-4, 3-(2-{[4-chloro-3-(4-cyano-6-trifluoromethyl-pyridin-3-yl)-benzoyl]-methyl-amino}-phenoxy)-propionic acid] | ≤ 100 nM
Cc1cc(C(F)(F)F)ncc1-c1cc(C(=O)N(C)c2c(C)cccc2OCCC(=O)O)ccc1Cl [11-5] | ≤ 100 nM
Cc1cc(C#N)ncc1-c1cc(C(=O)N(C)c2c(C)cccc2OCCC(=O)O)ccc1Cl [11-6] | ≤ 100 nM
Cc1cccc(OCCC(=O)O)c1N(C)C(=O)c1ccc(Cl)c(-c2cnc(C(F)(F)F)cc2C#N)c1 [11-7] | ≤ 100 nM
Cc1cccc(OCCC(=O)O)c1N(C)C(=O)c1ccc(Cl)c(-c2ccc(C(F)(F)F)cc2C#N)c1 [11-8] | ≤ 100 nM
COC(=O)CCCc1ccccc1N(C)C(=O)c1ccc(Cl)c(-c2cnc(C(F)(F)F)cc2C#N)c1 [13-3] | ≤ 100 nM
Cc1cc(Cl)ncc1-c1cc(C(=O)N(C)c2ccccc2CCCC(=O)O)ccc1Cl [14-1, 4-(2-{[4-Chloro-3-(6-chloro-4-methyl-pyridin-3-yl)-benzoyl]-methyl-amino}-phenyl)-butyric acid] | ≤ 100 nM
Cc1cc(C(F)(F)F)ncc1-c1cc(C(=O)N(C)c2ccccc2CCCC(=O)O)ccc1Cl [14-2] | ≤ 100 nM
Cc1cc(C#N)ncc1-c1cc(C(=O)N(C)c2ccccc2CCCC(=O)O)ccc1Cl [14-3] | ≤ 100 nM
CN(C(=O)c1ccc(Cl)c(-c2cnc(C(F)(F)F)cc2C#N)c1)c1ccccc1CCCC(=O)O [14-4] | ≤ 100 nM
CN(C(=O)c1ccc(Cl)c(-c2nc3ccccc3cc2C#N)c1)c1ccccc1CCCC(=O)O [15-1, 4-(2-{[4-Chloro-3-(3-cyano-quinolin-2-yl)-benzoyl]-methyl-amino}-phenyl)-butyric acid] | ≤ 100 nM
CCOC(=O)CCOc1ccccc1N(C)C(=O)c1ccc(Cl)c(-c2cnc(C(F)(F)F)cc2C#N)c1 [16-2, 3-(2-{[4-chloro-3-(4-cyano-6-trifluoromethyl-pyridin-3-yl)-benzoyl]-methyl-amino}-phenoxy)-propionic acid ethyl ester] | ≤ 100 nM
CCN(C(=O)c1ccc(Cl)c(-c2ncc(Cl)cc2Cl)c1)c1ccccc1OC [17-2] | ≤ 100 nM
COc1ccccc1N(C(=O)c1ccc(Cl)c(-c2ncc(Cl)cc2Cl)c1)C1CC1 [18-1, 4-Chloro-N-cyclopropyl-3-(3,5-dichloro-pyridin-2-yl)-N-(2-methoxy-phenyl)-benzamide] | ≤ 100 nM
CN(C(=O)c1ccc(Cl)c(-c2ncc(Cl)cc2Cl)c1)c1ccccc1O [19-1, 4-Chloro-3-(3,5-dichloro-pyridin-2-yl)-N-(2-hydroxy-phenyl)-N-methyl-benzamide] | ≤ 100 nM
